In US20260152724A1, “SMALL INTESTINE EPITHELIUM-LIKE CELLS AND PRODUCTION METHOD THEREOF” (OSAKA UNIVERSITY, priority 2022, published 2026):
Read-outs that look alike come from different tables or passages of the source. Values belong to the molecule of their own block, whether it stands above or below them.

Assays:
[1] = test system: definitive endoderm cells; experiment: Induction of differentiation from definitive endoderm cells into intestinal progenitor cells, marker gene expression by qRT-PCR (Example 1); type: cell-based, human; details: 4 days
Source text: This Example examined a differentiation-inducing action in a culture system containing each concentration of retinoic acid or a GSK3β inhibitor, which was known to be important in differentiation from definitive endoderm. To induce differentiation from definitive endoderm cells into intestinal progenitor cells, the medium B shown in Reference Example 2 was used as a basal medium.
Then, RNAs were recovered and analyzed for gene expression levels of an intestinal progenitor cell marker CDX2, a hepatic progenitor cell marker AFP, and a pancreatic progenitor cell marker PDX1 by quantitative RT-PCR (qRT-PCR). The quantitative RT-PCR was performed according to a common method. Total RNAS were recovered and CDNAS were synthesized. Complementary DNAs (cDNAs) were subjected to qRT-PCR with Fast SYBR Green Master Mix (Applied Biosystems) and quantification with StepOnePlus Real time PCR system (Applied Biosystems). A glyceraldehyde 3-phosphate dehydrogenase (GAPDH) gene was used as an internal standard gene. In addition, each gene expression level of DMSO-treated groups, which were controls, was set to 1.0. Data was shown with n=3, mean±standard deviation, but n=2 for each LY (10 nM and 30 nM). A detection limit was represented by N.D.

[2] = test system: intestinal progenitor cells; experiment: MEK inhibitor in differentiation from intestinal progenitor cells into ELCs, gene expression by qRT-PCR (Example 3); type: cell-based, human; details: PD 3 μM in medium C for 10 days, PD(+) versus PD(−); Conditions 2 and 3
Method: This Example investigated the action of a MEK inhibitor in a stage of inducing differentiation from intestinal progenitor cells into enterocyte-like cells (ELCs). PD0325901 (MedChemExpress LLC) was used as the MEK inhibitor. PD0325901 is sometimes abbreviated as PD in this Example and Examples described below. In a step from definitive endoderm cells to intestinal progenitor cells, culture e was performed under Conditions 2 and 3 shown in Table 3 in Example 2 according to the protocol illustrated in FIG. 3(1). […] Thus, the cells were induced to differentiate into enterocyte-like cells (ELCs). Subsequently, RNAs were recovered by the same procedure as in Example 1, and analyzed for each gene expression level of VIL1, CYP3A4, and MDR1 by qRT-PCR by the same method as in Example 2. Each gene expression level in an adult small intestine was set to 1.0. Data was shown with n=3, mean±standard deviation.

CYP3A4 [3] = experiment: Elimination of a humoral factor from medium K in ELC monolayer culture, CYP3A4 activity (Example 9)
Method: (§1) Further, CYP3A4 activity was checked. The CYP3A4 activity was measured with P450-Glo™ CYP3A4 Assay Kits (Promega Corporation). […] The CYP3A4 activity was corrected by the amount of a protein per well measured with BCA Protein Assay Kit (Thermo Fisher Scientific Inc.).
This Example investigated an influence of a humoral factor in ELC monolayer culture. […] In this Example, culture was performed with addition of the medium to only an upper stage A in a cell culture insert (Corning Incorporated) used in monolayer culture (FIG. 9(1)).

CYP3A4 [4] = experiment: CYP3A4 activity of ELCs, P450-Glo CYP3A4 assay (Example 3); type: cell-based, human; details: PD 3 μM in medium C for 10 days, PD(+) versus PD(−); Luciferin-IPA substrate, corrected by protein per well
Method: as §1

P-gp = experiment: Elimination of a humoral factor from medium K in ELC monolayer culture, P-gp activity (Example 9); type: cell-based, human; details: ELC monolayer (day 27 2D K), 6 days in medium K without the factor; digoxin substrate
Method: P-gp is an efflux transporter, and its activity was measured by allowing 1 μM digoxin to act through use of digoxin, [^3H (G)]-(PerkinElmer) and digoxin (Asahi Kasei Corporation) as substrate compounds, and allowing 100 μM verapamil to act as an inhibitor.

[5] = RA at each concentration (3, 10, 20, 30 μM) in medium B, DMSO-treated group = 1.0

Molecule: Cc1c[nH]c(-c2cnc(NCCNc3ccc(C#N)cn3)nc2-c2ccc(Cl)cc2Cl)n1 [CHIR, CHIR99021]
expression of CDX2 ([1]; CHIR at 10 μM (of 3, 10, 20 μM) in medium B): highest expression
expression of AFP ([1]; CHIR at 10 μM in medium B): low expressions
expression of PDX1 ([1]; CHIR at 10 μM in medium B): low expressions

Molecule: O=C1NC(=O)C(c2cnc3ccccn23)=C1c1cn2c3c(cc(F)cc13)CN(C(=O)N1CCCCC1)CC2 [LY, LY2090314]
expression of CDX2 ([1]; LY at 20 nM (of 3, 10, 20, 30 nM) in medium B): highest expression
expression of AFP (hepatic progenitor cell marker) ([1]; LY at 20 nM in medium B): low expressions
expression of PDX1 ([1]; LY at 20 nM in medium B): low expressions

gene expression level of CYP3A4 [2]: clearly higher values
CYP3A4 activity on elimination of the factor from medium K (CYP3A4 [3]): greatly decreased
CYP3A4 activity (CYP3A4 [4]): clearly higher value
Molecule: O=C(NOC[C@H](O)CO)c1ccc(F)c(F)c1Nc1ccc(I)cc1F [PD, PD0325901]
gene expression level of MDR1 [2]: clearly higher values

Molecule: CC1=C(/C=C/C(C)=C/C=C/C(C)=C/C(=O)O)C(C)(C)CCC1 [RA, all-trans-Retinoic Acid]
expression level of CDX2 (intestinal progenitor cell marker) [1, 5]: high expression levels
expression level of PDX1 (pancreatic progenitor cell marker) [1, 5]: high expression levels

CYP3A4 activity on elimination of the factor from medium K (CYP3A4 [3]): significantly increased
Molecule: NC(=O)c1ccc(-c2nc(-c3ccc4c(c3)OCO4)c(-c3ccccn3)[nH]2)cc1 [SB431542]

Molecule: C=C1/C(=C\C=C2/CCC[C@]3(C)[C@@H]([C@H](C)CCCC(C)(C)O)CC[C@@H]23)C[C@@H](O)C[C@@H]1O [Vitamin D3, 1α,25-Dihydroxyvitamin D3]
CYP3A4 activity on elimination of the factor from medium K (CYP3A4 [3]; ELC monolayer (day 27 2D K), 6 days in medium K without the factor): greatly decreased

Molecule: EGF: Epidermal growth factor, component of medium K
CYP3A4 activity on elimination of the factor from medium K (CYP3A4 [3]): significantly increased
P-gp activity on elimination of the factor from medium K (P-gp): no influence
